# Assay results as given in the supplement of paper PMC10307832.
# Legend:
# Test in all cases: relative viability (nuclei count vs DMSO), 5 days (fraction); higher = more cells survive
# Sunitinib + Foretinib = compound: CCN(CC)CCNC(=O)c1c(C)[nH]c(/C=C2\C(=O)Nc3ccc(F)cc32)c1C [Sunitinib] + COc1cc2c(Oc3ccc(NC(=O)C4(C(=O)Nc5ccc(F)cc5)CC4)cc3F)ccnc2cc1OCCCN1CCOCC1 [Foretinib] (partner 0.25 µM)
# Method in brief: (§1)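 Lung cancer cell lines, seeded in 1536-well plates, were treated the following day by pin tool with a single drug or with five library-drug doses (not always all listed) in √10 steps on top of a fixed anchor-drug dose. Cells were fixed and nuclei stained in one step after 5 days, and nuclei were counted. Relative viability is the nuclei count for treated wells divided by that for vehicle wells, reported as medians of duplicate plates.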
# Sunitinib + Olaparib = compound: CCN(CC)CCNC(=O)c1c(C)[nH]c(/C=C2\C(=O)Nc3ccc(F)cc32)c1C [Sunitinib] + O=C(c1cc(Cc2n[nH]c(=O)c3ccccc23)ccc1F)N1CCN(C(=O)C2CC2)CC1 [Olaparib] (partner 8 µM)
# Method in brief: as §1
# Sunitinib + Pemetrexed = compound: CCN(CC)CCNC(=O)c1c(C)[nH]c(/C=C2\C(=O)Nc3ccc(F)cc32)c1C [Sunitinib] + Nc1nc2[nH]cc(CCc3ccc(C(=O)N[C@@H](CCC(=O)O)C(=O)O)cc3)c2c(=O)[nH]1 [Pemetrexed] (partner 0.2 µM)
# Method in brief: as §1
# Sunitinib + Alpelisib = compound: CCN(CC)CCNC(=O)c1c(C)[nH]c(/C=C2\C(=O)Nc3ccc(F)cc32)c1C [Sunitinib] + Cc1nc(NC(=O)N2CCC[C@H]2C(N)=O)sc1-c1ccnc(C(C)(C)C(F)(F)F)c1 [Alpelisib] (partner 2 µM)
# Method in brief: as §1
Cell Line,relative viability (Sunitinib + Foretinib; first compound 0.02 µM),relative viability (Sunitinib + Foretinib; first compound 0.06325 µM),relative viability (Sunitinib + Foretinib; first compound 0.2 µM),relative viability (Sunitinib + Foretinib; first compound 0.6325 µM),relative viability (Sunitinib + Foretinib; first compound 2 µM),relative viability (Sunitinib + Olaparib; first compound 0.02 µM),relative viability (Sunitinib + Olaparib; first compound 0.06325 µM),relative viability (Sunitinib + Olaparib; first compound 0.2 µM),relative viability (Sunitinib + Olaparib; first compound 0.6325 µM),relative viability (Sunitinib + Olaparib; first compound 2 µM),relative viability (Sunitinib + Pemetrexed; first compound 0.02 µM),relative viability (Sunitinib + Pemetrexed; first compound 0.06325 µM),relative viability (Sunitinib + Pemetrexed; first compound 0.2 µM),relative viability (Sunitinib + Pemetrexed; first compound 0.6325 µM),relative viability (Sunitinib + Pemetrexed; first compound 2 µM),relative viability (Sunitinib + Alpelisib; first compound 0.02 µM),relative viability (Sunitinib + Alpelisib; first compound 0.06325 µM),relative viability (Sunitinib + Alpelisib; first compound 0.2 µM),relative viability (Sunitinib + Alpelisib; first compound 0.6325 µM),relative viability (Sunitinib + Alpelisib; first compound 2 µM)
NCI-H1651,0.762,0.843,0.877,0.826,0.806,0.213,0.196,0.199,0.17,0.179,0.597,0.609,0.617,0.481,0.604,0.738,0.969,1.17,1.02,0.991
NCI-H2009,1.19,1.25,1.31,1.27,1.3,0.675,0.739,0.717,0.799,0.778,1.03,1.01,1.1,1.08,1.12,1.18,1.2,1.27,1.19,1.12
NCI-H838,1.04,1,1.14,1.08,0.826,0.757,0.766,0.812,0.731,0.58,0.239,0.258,0.263,0.243,0.228,,0.999,1.16,0.992,
LC-2-ad,0.868,0.949,0.952,0.99,0.861,0.68,0.746,0.749,0.729,0.825,0.266,0.275,0.291,0.303,0.26,0.897,0.613,,0.891,0.605
NCI-H2087,1.12,1.28,1.15,1.07,1.11,0.605,0.689,0.822,0.674,0.56,0.711,0.693,0.559,0.626,0.693,0.904,1.06,1.11,1.23,1.01
NCI-H2347,0.704,0.708,1.03,,1.36,0.596,0.611,0.695,0.609,0.572,0.415,0.446,0.419,0.44,0.458,0.996,1.03,1.13,1.09,0.947
HCC-78,0.527,0.588,0.525,0.545,0.613,0.765,0.82,0.865,0.866,0.891,0.914,0.927,0.949,0.93,,0.364,,0.321,,0.419
UMC-11,0.962,1.03,1.11,1.06,0.956,0.387,0.382,0.674,0.324,0.324,0.669,0.838,0.843,0.885,0.772,0.945,1.03,0.892,0.929,0.912
SK-MES-1,0.932,0.932,1.03,1.09,0.894,0.643,0.7,0.877,,0.678,0.851,0.946,1.09,1.13,0.903,0.885,1.02,0.86,1.02,0.927
NCI-H1793,0.649,0.675,0.753,0.723,0.593,,0.726,1.03,1,0.706,,,1.29,0.949,0.831,,0.727,0.823,0.696,0.787
NCI-H1734,0.815,0.896,0.966,,0.752,0.552,0.618,0.691,0.619,0.539,0.406,0.426,0.396,0.411,0.411,0.626,0.673,0.869,0.669,0.641
NCI-H1437,1.24,1.25,1.28,1.22,1.32,0.623,0.641,0.614,0.61,0.647,0.336,0.329,0.345,0.309,0.322,0.949,0.974,,1.01,0.905
HOP-62,0.923,1.21,1.2,1.22,1.18,0.453,0.374,0.449,0.472,0.63,0.33,0.366,0.337,0.369,0.417,0.964,0.851,1.04,1.05,0.919
HCC-15,1.07,1.14,1.16,1.13,1.02,0.762,0.742,0.807,0.768,0.625,0.236,0.228,0.222,0.204,0.248,0.831,,1.01,0.872,0.94
NCI-H596,0.688,0.949,0.779,0.849,0.649,0.688,0.678,0.679,0.686,0.651,0.535,0.465,0.507,0.582,0.486,0.476,0.596,0.604,0.485,0.42
